Results reported in US10662146B2, “Prodrugs of fencamfamine” (Praxis Bioresearch, LLC, priority 2015, dated 2020).
“And” between values parts separate entries of the source, which are not always exact repeats. Equal values may be shown once.

Test: Single dose intravenous PK study in male Sprague Dawley rats (plasma by LC-MS/MS)
Type: in vivo
Experimental: We describe here PK results of prodrugs of PRX-002 (−) or (+) isomers. All doses of prodrugs were administered such that they were equivalent to 5 mg/kg of PRX-002 (−) or (+) for oral studies and 2 mg/kg PRX-002 (−) or (+) for intravenous studies in male Sprague-Dawley (MSD) rats. Higher doses of up to 10 or 15 mg/kg [again equivalent to PRX-002 (−)] were used in some studies (as specified)]. Formulation preparation, dose administration and time of sample collection was as follows.
(§1) Adult male Sprague Dawley Rats aged 8-10 weeks were used for the study. Animals were administered the test item by Intravenous bolus route with a dose of 2 mg/kg body weight at dose volume of 5.0 mL/kg body weight. Under mild isoflurane anesthesia, blood specimens were collected by retro-orbital puncture method using capillary tubes into pre-labeled tubes containing anticoagulant (K2EDTA-2 mg/mL blood) during the next 24 hours of post dose as mentioned in below table. For blood sampling at multiple time points, right and left eyes were used alternatively for blood collection. Collected blood specimens were centrifuged at 4000 rpm, 4° C. for 10 minutes and plasma were separated and stored at −80° C. until analysis.
Blood was collected as outlined in Table 39.2 (IV).
Test item PRX-P4-003 was weighed and transferred to a graduated tube. Then 600 μL of PEG 400 (v/v) was added and vortex mixed thoroughly until the test item was completely dissolved. Then 1.800 mL of Hydroxypropyl-β-cyclodextrin (HPβCD, 50% w/v) was added and vortex mixed thoroughly. The final volume was then made up to 3.600 mL with sterile water for injection (SWFI, v/v) with final formulation strength of 5.16 mgA/mL. […] This formulation was freshly prepared before the administration to animals.
as §1, with “administered with a PRX-P4-003” for “administered the test item”, “of 10” for “of 2”, “of 5” for “of 5.0”
Test item PRX-P5-006 was weighed and transferred to a graduated tube. Then 500 μL of DMSO (v/v) was added vortex mixed thoroughly until the test item was completely dissolved. Then 4000 μL of Hydroxypropyl-β-cyclodextrin (HPβCD, 50% w/v) was added and vortex mixed thoroughly. Then 2500 μL of PEG 400 (v/v) was added and vortex mixed thoroughly. The final volume was then made up to 10000 μL with sterile water for injection (SWFI, v/v) with final formulation strength of 3.97 mg/mL. […] This formulation was freshly prepared before the administration to animals.
as §1, with “administered with a PRX-P5-006” for “administered the test item”, “of 15” for “of 2”, “of 10” for “of 5.0”
The plasma concentrations of fencamfamine were measured by LC-MS/MS over time. […] The release of fencamfamine from the prodrugs varied depending on the chain length of the fatty acid linkers attached to fencamfamine. […]

Structure (SMILES): CCCCCCCCCCCCCCCCCC(=O)OC(C)OC(=O)N(CC)C1C2CCC(C2)C1c1ccccc1 (single isomer, unassigned) [PRX-P5-011, N-(1-Octadecanoyloxyethoxycarbonyl)-(+)-N-ethyl-3-phenylbicyclo[2.2.1]heptan-2-amine]
- Plasma concentration of PRX-P5-011 (PRX-P5-011 IV 2 mg/kg b.w., 0.08 h, individual animals, 2 mg/kg): 114.77 ng/mL and 37.09 ng/mL and 179.14 ng/mL
- Plasma concentration of PRX-P5-011 (PRX-P5-011 IV 2 mg/kg b.w., 0.25 h, individual animals, 2 mg/kg): 56.47 ng/mL and 17.98 ng/mL and 101.04 ng/mL
- Plasma concentration of PRX-P5-011 (PRX-P5-011 IV 2 mg/kg b.w., 0.50 h, individual animals): 0.00 ng/mL
- Plasma concentration of PRX-P5-011 (PRX-P5-011 IV 2 mg/kg b.w., 1.00 h, individual animals): 0.00 ng/mL
- Plasma concentration of PRX-P5-011 (PRX-P5-011 IV 2 mg/kg b.w., 2.00 h, individual animals): 0.00 ng/mL
- Plasma concentration of PRX-P5-011 (PRX-P5-011 IV 2 mg/kg b.w., 4.00 h, individual animals): 0.00 ng/mL
- Plasma concentration of PRX-P5-011 (PRX-P5-011 IV 2 mg/kg b.w., 6.00 h, individual animals): 0.00 ng/mL
- Plasma concentration of PRX-P5-011 (PRX-P5-011 IV 2 mg/kg b.w., 24.00 h, individual animals): 0.00 ng/mL
- concentration at 0.08 h (male, Sprague-Dawley, rat, plasma, iv, 2 mg/kg, PRX-P5-011 IV 2 mg/kg b.w., 0.08 h, mean): 110 ng/mL
- concentration at 0.25 h (male, Sprague-Dawley, rat, plasma, iv, 2 mg/kg, PRX-P5-011 IV 2 mg/kg b.w., 0.25 h, mean): 58.5 ng/mL
- concentration at 0.5 h (male, Sprague-Dawley, rat, plasma, iv, 2 mg/kg, PRX-P5-011 IV 2 mg/kg b.w., 0.50 h, individual animals): 0 ng/mL
- concentration at 0.5 h (male, Sprague-Dawley, rat, plasma, iv, 2 mg/kg, PRX-P5-011 IV 2 mg/kg b.w., 0.50 h, mean): 0 ng/mL
- concentration at 1 h (male, Sprague-Dawley, rat, plasma, iv, 2 mg/kg, PRX-P5-011 IV 2 mg/kg b.w., 1.00 h, individual animals): 0 ng/mL
- concentration at 1 h (male, Sprague-Dawley, rat, plasma, iv, 2 mg/kg, PRX-P5-011 IV 2 mg/kg b.w., 1.00 h, mean): 0 ng/mL
- concentration at 2 h (male, Sprague-Dawley, rat, plasma, iv, 2 mg/kg, PRX-P5-011 IV 2 mg/kg b.w., 2.00 h, individual animals): 0 ng/mL
- concentration at 2 h (male, Sprague-Dawley, rat, plasma, iv, 2 mg/kg, PRX-P5-011 IV 2 mg/kg b.w., 2.00 h, mean): 0 ng/mL
- concentration at 4 h (male, Sprague-Dawley, rat, plasma, iv, 2 mg/kg, PRX-P5-011 IV 2 mg/kg b.w., 4.00 h, individual animals): 0 ng/mL
- concentration at 4 h (male, Sprague-Dawley, rat, plasma, iv, 2 mg/kg, PRX-P5-011 IV 2 mg/kg b.w., 4.00 h, mean): 0 ng/mL
- concentration at 6 h (male, Sprague-Dawley, rat, plasma, iv, 2 mg/kg, PRX-P5-011 IV 2 mg/kg b.w., 6.00 h, individual animals): 0 ng/mL
- concentration at 6 h (male, Sprague-Dawley, rat, plasma, iv, 2 mg/kg, PRX-P5-011 IV 2 mg/kg b.w., 6.00 h, mean): 0 ng/mL
- concentration at 24 h (male, Sprague-Dawley, rat, plasma, iv, 2 mg/kg, PRX-P5-011 IV 2 mg/kg b.w., 24.00 h, individual animals): 0 ng/mL
- concentration at 24 h (male, Sprague-Dawley, rat, plasma, iv, 2 mg/kg, PRX-P5-011 IV 2 mg/kg b.w., 24.00 h, mean): 0 ng/mL

Structure (SMILES): CCN[C@H]1[C@H]2CC[C@H](C2)[C@@H]1c1ccccc1 [PRX-002 (+) Isomer, (1S,2S,3R,4R)—N-Ethyl-3-phenylbicyclo[2.2.1]heptan-2-amine, reference compound]
- AUC(0-inf) (male, Sprague Dawley, rat, plasma, iv, 2 mg/kg, single IV dose 2 mg/kg b.w., mean plasma PK parameters (Table 39.27), read-out: AUCinf): 268 ± 23.5 ng·h/mL
- AUC(0-t) (male, Sprague Dawley, rat, plasma, iv, 2 mg/kg, single IV dose 2 mg/kg b.w., mean plasma PK parameters (Table 39.27), read-out: AUClast): 250 ± 15.2 ng·h/mL
- C0 (male, Sprague Dawley, rat, plasma, iv, 2 mg/kg, single IV dose 2 mg/kg b.w., mean plasma PK parameters (Table 39.27), read-out: C0): 291 ± 61.8 ng/mL
- clearance (male, Sprague Dawley, rat, plasma, iv, 2 mg/kg, single IV dose 2 mg/kg b.w., mean plasma PK parameters (Table 39.27), read-out: CL): 125 ± 10.6 mL/min/kg
- Cmax (male, Sprague Dawley, rat, plasma, iv, 2 mg/kg, single IV dose 2 mg/kg b.w., mean plasma PK parameters (Table 39.27), read-out: Cmax): 234 ± 37.9 ng/mL
- MRT last (male, Sprague Dawley, rat, plasma, iv, 2 mg/kg, single IV dose 2 mg/kg b.w., mean plasma PK parameters (Table 39.27), read-out: MRTlast): 1.05 ± 0.071 h
- half-life (male, Sprague Dawley, rat, plasma, iv, 2 mg/kg, single IV dose 2 mg/kg b.w., mean plasma PK parameters (Table 39.27), read-out: T1/2 (converted)): 1.08 ± 0.152 h
- Vd (male, Sprague Dawley, rat, plasma, iv, 2 mg/kg, single IV dose 2 mg/kg b.w., mean plasma PK parameters (Table 39.27), read-out: Vss): 10.1 ± 0.51 L/kg
- Tmax (male, Sprague Dawley, rat, single IV dose 2 mg/kg b.w., mean plasma PK parameters (Table 39.27), read-out: Tmax): 4.8 min
- AUCextrap (single IV dose 2 mg/kg b.w., mean plasma PK parameters (Table 39.27)): 6.639 ± 2.427%
